Consider one molecule from patent EP0396317B1, “Pharmaceutical composition” (priority 1989, dated 1990).

Molecules are shown by their SMILES.

This series is described as follows: solubility and pH-dependent separation of the carbenoxolone/chlorhexidine complex. The series is classed as physicochemical.

Regarding `[H]/N=C(\N/C(=N/[H])NCCCCCCNC(=N)NC(=N)Nc1ccc(Cl)cc1)Nc1ccc(Cl)cc1` [chlorhexidine], the “behaviour of the complex suspension at high pH” value (pH 9.0 or more) is reported as “can be separated by filtration”. The “behaviour of the complex suspension at low pH” value (pH less than 3.5 / 3.5 or less) is “will remain in solution”.
